# How the values were obtained:
# buffered rumen fluid = test: Rumen screen, in vitro ruminal volatile fatty acid ratio (Examples 15, 16); type: cell-based, steer; details: Neg. Control 1.39
# Experimental: Rumen fluid was removed from a fistulated steer and strained through a cheesecloth. An equal amount of pH 7 buffer was added to strained rumen fluid. After layering occurred, the lower layer was saved and again diluted with equal amount of buffer. Ten ml. portions of buffered rumen fluid were added to fermentation vessels containing 500 mg. fresh finely ground cattle ration, 1 mg cellubiose and a test compound listed in Table 1 below at the indicated concentration. The fermentation vesels were outfitted with one-way gas valves, placed in an incubator and shaken for 24 hours at 38° C. Fermentation was stopped by addition of 1 ml mercuric chloride. The liquid was decanted and analyzed for volatile fatty acids by gas chromatography. Test results are summarized in Table 1, wherein Bac=bacitracin.
# The procedures of Example 15 were repeated in all essential details with the test compounds and concentrations listed in Table 1 below, as are the results of the test.
# Eimeria tenella [1] = test: Anticoccidial activity in chickens inoculated with Eimeria tenella (Example 12); type: in vivo, chicken
# Experimental: (§1) This example describes experimental testing of complexes of this invention for anticoccidial activity. Anticoccidial activities of test compounds were determined by administering the compounds (in feed) to chickens inoculated with active oocysts of Eimeria tenella. The test compounds, which are listed in Table 1 below, included four bacitracin-metal-polyether antibiotic complexes prepared according to the procedures described above. In addition, sodium lysocellin, regular bacitracin, sodium monensin, sodium lasolocid, and unmedicated inoculated and noninoculated controls were included for comparative purposes.
# (§2) The test animals were Hubbard White Mountain male chicken (broiler strain) that were 5 days old at the beginning of the test. Each experimental compound was administered in a chick starter diet (Table 2) at a level of 80 g/ton and 120 g/ton. At 7 days of age, chicks were individually weighed, banded, and started on their respective treatments. Each treatment was replicated three times with five birds per replicate for a total of 15 birds per group. The test period was 10 days.
# Seventy-two hours after the initiation of medication, birds were reweighed and orally inoculated with approximately 100,000 Eimeria tenella oocysts suspended in a 1 cc dose of saline. The following criteria were then evaluated over the next seven days:
# A satisfactory challenge was obtained with Eimeria tenella.
# Eimeria tenella [2] = test: Anticoccidial activity in chickens inoculated with Eimeria tenella oocysts (Example 11); type: in vivo; details: for Incidence of Bloody Droppings / Morbidity: 4th-6th day; for Morbidity: birds affected/birds in group; for Mortality: 4th-7th day, birds dead/birds in group; for F/G Day 0-3 / F/G Day 4-10: feed per gain
# Experimental: as §1, §2
# Seventy-two hours after the initiation of medication, birds were reweighed and orally inoculated with approximately 100,000 Eimeria tenella oocysts suspended in a 1 cc dose of saline. The following criteria were then evaluated over the next seven days: […]
# a. morbidity (4th-6th day) b. mortality (4th-7th day) c. incidence of bloody droppings (4th-6th day)
# [3] = 14 g/ton Lasalocid (Approx.), regrouped part of Table 2
# [4] = 36 g/ton Lasalocid (Approx.), regrouped part of Table 2
substance,measurement,setting,value
sodium lysocellin [reference compound],A/P Ratio,"buffered rumen fluid; Example 15, 5 ppm, 24 hours at 38° C.",1.07
same,A/P Ratio,"buffered rumen fluid; Example 16, 5 ppm",1.07
Bacitracin-Cobalt-Lysocellin Complex [Example 1],Cecal Bleeding,Eimeria tenella [1]; [3],Severe
same,Gain/Bird Days 0-3,Eimeria tenella [1]; [3],61.6
same,Gain/Bird Days 4-10,Eimeria tenella [1]; [3],180.1
same,Cecal Bleeding,Eimeria tenella [1]; [4],Slight
same,Feed/Gain Days 0-3,Eimeria tenella [1]; [4],1.65
same,Gain/Bird Days 0-3,Eimeria tenella [1]; [4],59.0
same,Gain/Bird Days 4-10,Eimeria tenella [1]; [4],188.4
same,Incidence of Bloody Droppings,Eimeria tenella [1]; 80 g/ton in feed,Severe
same,Morbidity,Eimeria tenella [1]; 80 g/ton in feed,6/15
same,Mortality,Eimeria tenella [1]; 80 g/ton in feed,0/15
same,F/G Day 0-3,Eimeria tenella [1]; 80 g/ton in feed,1.62
same,Gain/Bird Grams Day 0-3,Eimeria tenella [1]; 80 g/ton in feed,61.6 Grams
same,F/G Day 4-10,Eimeria tenella [1]; 80 g/ton in feed,1.86
same,Gain/Bird Grams Day 4-10,Eimeria tenella [1]; 80 g/ton in feed,180.1 Grams
same,Cecal bleeding associated with E. tenella infections,Eimeria tenella [1]; 80 gram per ton,severe
same,weight gains compared with those of test compound 5 and lasalocid,Eimeria tenella [1]; 80 gram per ton (lasalocid 24 gram per ton),appreciably higher
same,Incidence of Bloody Droppings,Eimeria tenella [1]; 120 g/ton in feed,Slight-
same,Morbidity,Eimeria tenella [1]; 120 g/ton in feed,4/15
same,Mortality,Eimeria tenella [1]; 120 g/ton in feed,0/15
same,F/G Day 0-3,Eimeria tenella [1]; 120 g/ton in feed,1.64
same,Gain/Bird Grams Day 0-3,Eimeria tenella [1]; 120 g/ton in feed,59.0 Grams
same,F/G Day 4-10,Eimeria tenella [1]; 120 g/ton in feed,1.78
same,Gain/Bird Grams Day 4-10,Eimeria tenella [1]; 120 g/ton in feed,188.4 Grams
same,anticoccidial activity (in words),Eimeria tenella [1]; 120 grams per ton,good anticoccidial activity
same,A/P Ratio,"buffered rumen fluid; Example 15, 10 ppm, 24 hours at 38° C.",1.10
same,Incidence of Bloody Droppings,Eimeria tenella [2]; 80 g/ton in feed,Severe
same,Morbidity,Eimeria tenella [2]; 80 g/ton in feed,10/15
same,Mortality,Eimeria tenella [2]; 80 g/ton in feed,0/15
same,"Gain, Grams Day 0-3",Eimeria tenella [2]; 80 g/ton in feed,58.4 Grams
same,"Gain, Grams Day 4-10",Eimeria tenella [2]; 80 g/ton in feed,196.5 Grams
same,F/G Day 0-3,Eimeria tenella [2]; 80 g/ton in feed,1.75
same,F/G Day 4-10,Eimeria tenella [2]; 80 g/ton in feed,1.71
same,Incidence of Bloody Droppings,Eimeria tenella [2]; 120 g/ton in feed,Moderate
same,Morbidity,Eimeria tenella [2]; 120 g/ton in feed,4/15
same,Mortality,Eimeria tenella [2]; 120 g/ton in feed,0/15
same,"Gain, Grams Day 0-3",Eimeria tenella [2]; 120 g/ton in feed,54.1 Grams
same,"Gain, Grams Day 4-10",Eimeria tenella [2]; 120 g/ton in feed,209.1 Grams
same,F/G Day 0-3,Eimeria tenella [2]; 120 g/ton in feed,1.81
same,F/G Day 4-10,Eimeria tenella [2]; 120 g/ton in feed,1.66

# Reference: US4693992A, “Bacitracin-metal-polyether antibiotic complexes” (International Minerals & Chemical Corp., priority 1985, dated 1987)
